Test results as given in US5464617A, “β-lactam compounds” (Hoffmann-La Roche Inc., priority 1994, dated 1995).
Converted amounts (≈) assume the structure as drawn. Where a name gives a salt, the structure may show the parent alone.

Legend:
E. coli 1346 = experiment: Antibacterial activity of the products per se, serial dilution method in liquid medium (Test E); format: cell-based; conditions: product per se; for MIC E. coli 1346 (E): Table 4, test E
Text: The antibacterial activity of the products per se is illustrated on the basis of Table 3 hereinafter, the minimum inhibitory concentration […] in vitro against E. coli 1346 being determined using the serial dilution method in liquid medium: […]

[1] = system: Citrobacter freundii 1982; experiment: MIC in vitro of a 1:4 combination of ceftriaxone with a compound of formula I (Test D); format: cell-based; conditions: 1:4 combination of ceftriaxone with the compound; for MIC C. freundii 1982 (D): Table 4, test D
Method: The minimum inhibitory concentration in vitro ([…]) of a 1:4 combination of ceftriaxone with a compound of formula I against Citrobacter freundii 1982 was measured and compiled in Table 2 hereinafter.

CC(=O)N1C[C@H]2CC(COC(=O)NCc3ccncc3)=C(C(=O)O)N3C(=O)[C@@H]1[C@@H]23 [100(a), (1aS,3aR,6bR)-2-Acetyl-1-oxo-5-(pyridin-4-ylmethylcarbamoyloxymethyl)-1a,2,3,3a,4,6b-hexahydro-1H-2,6a-diazacyclobut[cd]indene-6-carboxylic acid sodium salt] was tested, and the “MIC E. coli 1346 (E)” value (E. coli 1346) was 1 µg/mL and the “MIC C. freundii 1982 (D)” value [1] was 1 µg/mL.
In the case of NC(=O)OCC1=C(C(=O)O)N2C(=O)[C@@H]3[C@H]2[C@H](C1)CN3C(=O)NCc1cccs1 [27(f), (1aS,3aR,6bR)-5-Carbamoyloxymethyl-2-(thiophen-2-ylmethylcarbamoyl)-1-oxo-1a,2,3,3a,4,6b-hexahydro-1H-2,6a-diaza-cyclobut[cd]indene-6-carboxylic acid sodium salt], the “MIC E. coli 1346 (E)” value (E. coli 1346) is reported as ≤ 0,25 μg/ml and the “MIC C. freundii 1982 (D)” value [1] is reported as 0.25 µg/mL.
With O=C(NCc1ccncc1)OCC1=C(C(=O)O)N2C(=O)[C@@H]3[C@H]2[C@H](C1)CN3C(=O)C(F)(F)F [100(b), (1aS,3aR,6bR)-1-Oxo-5-(pyridin-4-ylmethylcarbamoyloxymethyl)-2-trifluoroacetyl-1a,2,3,3a,4,6b-hexahydro-1H-2,6a-diazacyclobut[cd]indene-6-carboxylic acid sodium salt] the “MIC E. coli 1346 (E)” value (E. coli 1346) was 2 µg/mL and the “MIC C. freundii 1982 (D)” value [1] was 1 µg/mL.
O=C(O)C1=C(CO)S[C@@H]2CN(C(=O)Nc3ccc(O)cc3)[C@@H]3C(=O)N1[C@@H]32 [41(d) Byproduct] was tested, and the “MIC E. coli 1346 (E)” value (E. coli 1346) was > 32 µg/mL and the “MIC C. freundii 1982 (D)” value [1] was 1 µg/mL.
For CC(=O)N1C[C@H]2CC(COC(=O)NCC(N)=O)=C(C(=O)O)N3C(=O)[C@@H]1[C@@H]23 [96(a), (1aS,3aR,6bR)-2-Acetyl-5-carbamoylmethylcarbamoyloxymethyl-1-oxo-1a,2,3,3a,4,6b-hexahydro-1H-2,6a-diazacyclobut[cd]indene-6-carboxylic acid sodium salt], the “MIC E. coli 1346 (E)” value (E. coli 1346) was 8 µg/mL and the “MIC C. freundii 1982 (D)” value [1] was 2 µg/mL.
For NC(=O)CNC(=O)OCC1=C(C(=O)O)N2C(=O)[C@H]3NC[C@@H](C1)[C@H]32 [Example 95, (1aS,3aR,6bR)-5-Carbamoylmethylcarbamoyloxymethyl-1-oxo-1a,2,3,3a,4,6b-hexahydro-1H-2,6a-diazacyclobut[cd]indene-6-carboxylic acid trifluoroacemte], the “MIC E. coli 1346 (E)” value (E. coli 1346) was 4 µg/mL (≈ 12.3 µM) and the “MIC C. freundii 1982 (D)” value [1] was 0.5 µg/mL.
In the case of O=C(NC1CC1)OCC1=C(C(=O)O)N2C(=O)[C@H]3NC[C@@H](C1)[C@H]32 [Example 93, (1aS,3aR,6bR)-5-Cyclopropylcarbamoyloxymethyl-1-oxo-1a,2,3,3a,4,6b-hexahydro-1H-2,6a-diazacyclobut[cd]indene-6-carboxylicacid trifluoroacetate], the “MIC E. coli 1346 (E)” value (E. coli 1346) is reported as 8 µg/mL and the “MIC C. freundii 1982 (D)” value [1] is reported as 2 µg/mL.
With O=C(O)C1=C(CSc2ncccn2)C[C@@H]2CN[C@@H]3C(=O)N1[C@H]23 [Example 71, (1aS,3aR,6bR)-1-Oxo-5-(pyrimidin-2-ylsulphanylmethyl)-1a,2,3,3a,4,6b-hexahydro-1H-2,6a-diazacyclobut[cd]indene-6-carboxylic acid trifluoroacetate] the “MIC E. coli 1346 (E)” value (E. coli 1346) was 8 µg/mL and the “MIC C. freundii 1982 (D)” value [1] was 2 µg/mL.
In the case of NC(=O)CSC1=C(C(=O)O)N2C(=O)[C@H]3NC[C@@H](C1)[C@H]32 [Example 2(f), (1aS,3aR,6bR)-5-Carbamoylmethylsulphanyl-1-oxo-1a,2,3,3a,4,6b-hexahydro-1H-2,6a-diazacyclobut[cd]indene-6-carboxylic acid trifluoroacetate], the “MIC E. coli 1346 (E)” value (E. coli 1346) is reported as 8 µg/mL and the “MIC C. freundii 1982 (D)” value [1] is reported as 2 µg/mL.
With Cc1nnc(SC2=C(C(=O)O)N3C(=O)[C@H]4NC[C@@H](C2)[C@H]43)s1 [Example 2(b), (1aS,3aR,6bR)-5-(5-Methyl-1,3,4-thiadiazol-2-ylsulphanyl)-1-oxo-1a, 2,3,3a,4,6b-hexahydro-1H-2,6a-diazcyclobut[cd]indene-6-carboxylic acid trifluoroacetate] the “MIC E. coli 1346” value (E. coli 1346; Table 3, liquid medium) was 4 µg/mL and the “MIC C. freundii 1982” value ([1]; Table 2) was 1 µg/mL.
For O=C(Cn1nnnc1SCC1=C(C(=O)O)N2C(=O)[C@H]3NC[C@@H](C1)[C@H]32)NCCc1ccccc1 [Example 79, (1aS,3aR,6bR)-1-Oxo-5-[1-(phenethylcarbamoylmethyl)-1H-tetrazol-5-ylsulphanylmethyl]-1a,2,3,3a,4,6b-hexahydro-1H-2,6a-diazacyclobut[cd]indene-6-carboxylic acid trifluoroacetate], the “MIC E. coli 1346 (E)” value (E. coli 1346) was 2 µg/mL and the “MIC C. freundii 1982 (D)” value [1] was 4 µg/mL.
With CC(=O)N1C[C@H]2CC(Sc3nnnn3C)=C(C(=O)O)N3C(=O)[C@@H]1[C@@H]23 [Example 3(aa), (1aS,3aR,6bR)-2-Acetyl-5-(1-methyl-1H-tetrazol-5-ylsulphanyl)-1-oxo-1a,2,3,3a,4,6b-hexahydro-1H-2,6a-diazacyclobut[cd]indene-6-carboxylic acid sodium salt] the “MIC E. coli 1346 (E)” value (E. coli 1346) was 8 µg/mL and the “MIC C. freundii 1982 (D)” value [1] was 2 µg/mL.
In the case of CC(=O)N1C[C@H]2SC(CSc3nnc(C)s3)=C(C(=O)O)N3C(=O)[C@@H]1[C@@H]23 [42(a), (1aS,3aR,6bS)-2-Acetyl-5-(5-methyl-1,3,4-thiadiazol-2-ylsulphanylmethyl)-1-oxo-4-thia-1,1a,2,3,3a,6b-hexahydro-2,6a-diazacyclobut[cd]indene-6-carboxylic acid sodium salt], the “MIC E. coli 1346 (E)” value (E. coli 1346) is reported as 2 µg/mL and the “MIC C. freundii 1982 (D)” value [1] is reported as 1 µg/mL.
For CC(=O)N1C[C@H]2OC(CSc3nnnn3CC(=O)NOC(c3ccccc3)(c3ccccc3)c3ccccc3)=C(C(=O)O)N3C(=O)[C@@H]1[C@@H]23 [32(h), (1aS,3aR,6bS)-2-Acetyl-1-oxo-5-(1-(trityloxycarbamoylmethyl)-1H-tetrazol-5-ylsulphanylmethyl)-1,1a,2,3,3a,6b-hexahydro-4-oxa-2,6 a-diazacyclobut[cd]indene-6-carboxylic acid sodium salt], the “MIC E. coli 1346 (E)” value (E. coli 1346) was > 32 µg/mL and the “MIC C. freundii 1982 (D)” value [1] was 64 µg/mL.
In the case of O=C(O)C1=C(CSc2nc[nH]n2)C[C@@H]2CN[C@@H]3C(=O)N1[C@H]23 [Example 75, (1aS,3aR,6 bR)-1-Oxo-5-(1H-1,2,4-triazol-3-ylsulphanylmethyl)-1a,2,3,3a,4,6b-hexahydro-1H-2,6a-diazacyclobut[cd]indene-6-carboxylic acid trifluoroacetate], the “MIC E. coli 1346 (E)” value (E. coli 1346) is reported as 4 µg/mL and the “MIC C. freundii 1982 (D)” value [1] is reported as 1 µg/mL.
In the case of CC(=O)N1C[C@H]2OC(CSc3cc(C)nc4nc(C(N)=O)nn34)=C(C(=O)O)N3C(=O)[C@@H]1[C@@H]23 [32(c), (1aS,3aR,6bS)-2-Acetyl-5-(2-carbamoyl-S-methyl[1,2,4]-triazolo[1,5-a]pyrimidin-7-ylsulphanylmethyl)-1-oxo-1,1a,2,3,3a,6b-hexahydro-4-oxa-2,6a-diazacyclobut[cd]indene-6-carboxylic acid sodium salt], the “MIC E. coli 1346 (E)” value (E. coli 1346) is reported as 4 µg/mL and the “MIC C. freundii 1982 (D)” value [1] is reported as 32 µg/mL.
Cc1nnc(SCC2=C(C(=O)O)N3C(=O)[C@H]4NC[C@@H](C2)[C@H]43)s1 [Example 63, (1aS,3aR,6bR)-5-(5-Methyl-1,3,4-thiadiazol-2-ylsulphanylmethyl)-1-oxo-1a,2,3,3a,4,6b-hexahydro-1H-2,6a-diazacyclobut[cd]indene-6-carboxylic acid trifluoroacetate] was tested, and the “MIC E. coli 1346 (E)” value (E. coli 1346) was 8 µg/mL and the “MIC C. freundii 1982 (D)” value [1] was 2 µg/mL.
For O=C([O-])C[n+]1ccc(SCC2=C(C(=O)O)N3C(=O)[C@H]4NC[C@@H](C2)[C@H]43)cc1 [Example 50, (1aS,3aR,6bR)-[4-(6-Carboxy-1-oxo-1a,2,3,3a,4,6b-hexahydro-1H-2,6a-diazacyclobut[cd]indene-5-ylmethylsulphanyl)-pyridin-1-ylio]acetatetrifluoroacetate], the “MIC E. coli 1346 (E)” value (E. coli 1346) was 4 µg/mL (≈ 10.7 µM) and the “MIC C. freundii 1982 (D)” value [1] was 2 µg/mL.
For Cc1nnc(SCC2=C(C(=O)O)N3C(=O)[C@@H]4[C@H]3[C@@H](CN4C(=O)Nc3ccc(O)cc3)O2)s1 [Example 31(a), (1aS,3aR,6bS)-2-(4-Hydroxy-phenylcarbamoyl)-5-(5-methyl-1,3,4-thiadiazol-2-ylsulphanylmethyl)-1-oxo-1,1a,2,3,3a,6 b-hexahydro-4-oxa-2,6a-diazacyclobut[cd]indene-6-carboxylic acid sodium salt], the “MIC E. coli 1346 (E)” value (E. coli 1346) was 8 µg/mL and the “MIC C. freundii 1982 (D)” value [1] was 0.5 µg/mL.
With O=C(NCc1ccncc1)OCC1=C(C(=O)O)N2C(=O)[C@H]3NC[C@@H](C1)[C@H]32 [Example 99, (1aS,3aR,6bR)-1-Oxo-5-(pyridin-4-ylmethylcarbamoyloxymethyl)-1a,2,3,3a,4,6b-hexahydro-1H-2,6a-diazacyclobut[cd]indene-6-carboxylic acid trifluoroacetate] the “MIC E. coli 1346 (E)” value (E. coli 1346) was 4 µg/mL and the “MIC C. freundii 1982 (D)” value [1] was 2 µg/mL.
In the case of NC(=O)OCC1=C(C(=O)O)N2C(=O)[C@@H]3[C@H]2[C@H](C1)CN3C(=O)NCc1ccccc1 [Example 27(c), (1aS,3aR,6bR)-2-Benzylcarbamoyl-5-carbamoyloxymethyl-1-oxo-1a,2,3,3a,4,6b-hexahydro-1H-2,6a-diazacyclobut[cd]indene-6-carboxylic acid sodium salt], the “MIC E. coli 1346 (E)” value (E. coli 1346) is reported as > 32 µg/mL and the “MIC C. freundii 1982 (D)” value [1] is reported as 0.25 µg/mL.
With NC(=O)OCC1=C(C(=O)O)N2C(=O)[C@@H]3[C@H]2[C@H](C1)CN3C(=O)NC1CC1 [27(d), (1aS,3aR,6bR)-5-Carbamoyloxymethyl-2-cyclopropylcarbarmoyl-1-oxo-1a,2,3,3a,4,6b-hexahydro-1H-2,6a-diazacyclobut[cd]indene-6-carboxylic acid sodium salt] the “MIC E. coli 1346 (E)” value (E. coli 1346) was 32 µg/mL and the “MIC C. freundii 1982 (D)” value [1] was 0.25 µg/mL.
CS(=O)(=O)NCC1=C(C(=O)O)N2C(=O)[C@@H]3[C@H]2[C@H](C1)CN3C(=O)C(F)(F)F [88(b), (1aS,3aR,6bR)-5-Methylsulphonylaminomethyl-1-oxo-2-trifluoroacetyl-1a,2,3,3a,4,6b-hexahydro-1H-2,6a-diazacyclobut[cd]indene-6-carboxylic acid sodium salt] was tested, and the “MIC E. coli 1346 (E)” value (E. coli 1346) was 4 µg/mL and the “MIC C. freundii 1982 (D)” value [1] was 2 µg/mL.
